Counter-ions that a name gives are not always drawn.
Tests used:
human RORγt LBD = target: T1, human RORγt LBD (Homo sapiens, UniProt P51449); assay: RORγt (LBD) Reporter Assay (GAL4 luciferase, HEK293T cells); assay type: cell-based; details: for inhibition at 6 µM: HEK-293T; for IC50: compounds for 24 hours
T1 construct: expressed in transfected cells; host or cells: HEK293T
T1 sequence (P51449 258-518): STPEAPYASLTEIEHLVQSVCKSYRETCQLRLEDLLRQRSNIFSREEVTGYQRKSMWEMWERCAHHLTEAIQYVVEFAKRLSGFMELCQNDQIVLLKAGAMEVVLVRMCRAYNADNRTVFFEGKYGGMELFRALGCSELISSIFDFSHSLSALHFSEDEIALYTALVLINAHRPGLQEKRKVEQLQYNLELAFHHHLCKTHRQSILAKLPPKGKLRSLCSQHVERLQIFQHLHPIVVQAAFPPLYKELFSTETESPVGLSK
Protocol: Compounds were assessed for RORgt functional modulation using either the RORgt ligand binding domain (LBD) reporter assay, or the RORgt full-length (FL) reporter assay.
A reporter assay was used to test functional activity of RORγt modulatory compounds on transcriptional activation driven by the RORγt LBD. Cells used in the assay were co-transfected with two constructs. The first construct, pBIND-RORγt LBD, contained the wild type human RORγt LBD fused to the DNA binding domain of the GAL4 protein. The second construct, pGL4.31 (Promega Cat no. C935A), contained multiple GAL4 responsive DNA elements upstream of firefly luciferase. […] The mutant construct was called pBIND-RORγt-AF2.
The pBIND vector contains the GAL4 DNA Binding Domain (GAL4 DBD) and the renilla luciferase gene under control of the SV40 promoter. Renilla luciferase expression serves as a control for transfection efficiency and cell viability.
The reporter assay was performed by transiently transfecting HEK293T cells with 5 µg of pBIND-RORγt LBD or pBIND-RORγt LBD-AF2 and 5 µg pGL4.31 (Promega Cat no. C935A) using Fugene 6 (Invitrogen Cat no. E2691) at a 1:6 ratio of DNA: Fugene 6 in a T-75 flask in which cells were at least 80% confluent. Twenty four hours after bulk transfection, cells were plated into 96-well plates at 50,000 cells/well in phenol-red free DMEM containing 5% Lipid Reduced FCS and Pen/Strep. Six hours after plating, cells were treated with compounds for 24 hours. Media was removed and cells were lysed with 50 µL 1x Glo Lysis Buffer (Promega). Dual Glo Luciferase Reagent (50 µL/well) was then added and firefly luciferase luminescence was read on an Envision after a ten minute incubation. Finally, Stop and Glo reagent (50 µL/well) was added and renilla luciferase luminescence was read on an Envision after a ten minute incubation. To calculate the effect of compounds on RORγt activity, the ratio of firefly to renilla luciferase was determined and plotted against compound concentration. Agonist compounds increase RORγt-driven luciferase expression, and antagonist or inverse agonist compounds decrease luciferase expression.

[1] = target: T2, human RORγt ligand binding domain (RORγt LBD) (Homo sapiens, UniProt P51449); assay: ThermoFluor® Assay (RORγt thermal shift binding); details: 0.065 mg/mL RORγt, 60 µM 1,8-ANS, pH 7.0; estimated from concentration response curves
T2 construct: His-tag (N); TurboTEV protease cleavage site (ENLYFQG) (N); made in house; host or cells: E. coli (pHIS1, modified pET vector)
T2 sequence (P51449 258-518): T1 sequence (P51449 258-518)
Protocol: This approach is applicable to a wide variety of systems, and rigorous in theoretical interpretation through quantitation of equilibrium binding constants (KD).
The shift in the melting point described as a ΔTm is proportional to the concentration and affinity of the ligand. The compound potency may be compared as a rank order of either ATm values at a single compound concentration or in terms of KD values, estimated from concentration response curves.
ThermoFluor® experiments were carried out using instruments owned by Janssen Research and Discovery, L.L.C. through its acquisition of 3-Dimensional Pharmaceuticals, Inc. 1,8-ANS (Invitrogen) was used as a fluorescent dye. Protein and compound solutions are dispensed into black 384-well polypropylene PCR microplates (Abgene) and overlayed with silicone oil (1 µL, Fluka, type DC 200) to prevent evaporation.
Bar-coded assay plates are robotically loaded onto a thermostatically controlled PCR-type thermal block and then heated at a typical ramp-rate of 1 °C/minute for all experiments. Fluorescence was measured by continuous illumination with UV light (Hamamatsu LC6) supplied via fiber optic and filtered through a band-pass filter (380-400 nm; >6 OD cutoff). Fluorescence emission of the entire 384-well plate was detected by measuring light intensity using a CCD camera (Sensys, Roper Scientific) filtered to detect 500 ± 25 nm, resulting in simultaneous and independent readings of all 384 wells. Images were collected at each temperature, and the sum of the pixel intensity in a given area of the assay plate was recorded versus temperature. Reference wells contained RORyt without compounds, and the assay conditions were as follows: • 0.065 mg/mL RORγt • 60 µM 1,8-ANS • 100 mM Hepes, pH 7.0 • 10 mM NaCl • 2.5 mM GSH • 0.002% Tween-20
Project compounds were arranged in a pre-dosed mother plate (Greiner Bio-one) wherein compounds are serially diluted in 100% DMSO by 1:2 from a high concentration of 10 mM over 12 columns within a series (column 12 is a reference well containing DMSO, no compound). The compounds were robotically dispensed directly into assay plates (1x = 46 nL) using a Hummingbird capillary liquid handling instrument (Digilab). Following compound dispense, protein and dye in buffer was added to achieve the final assay volume of 3 µL, followed by 1 µL of silicone oil.

COc1nc2ccc(C(O)c3cnc(C)n3C)cc2c(Cl)c1Cc1ccc(F)cc1 (single isomer, unassigned) [Example 8c]
RORγt (LBD) Reporter Assay, % inhibition @ 6 µM (human RORγt LBD; 6 µM compound, 6 µM): 37%

COc1nc2ccc(C(O)c3cncn3C)cc2c(Cl)c1Cc1ccc(C(F)(F)F)cc1 (single isomer, unassigned) [Example 18b, (4-Chloro-2-methoxy-3-(4-(trifluoromethyl)benzyl)quinolin-6-yl)(1-methyl-1H-imidazol-5-yl)methanol]
Kd [1]: 290 nM | inhibition at 6 µM (human RORγt LBD; 6 µM compound): 98% | IC50 (human RORγt LBD): 510 nM

Cc1ncc(C(O)c2ccc3nc(N4CCC4)c(Cc4ccc(-n5cccn5)cc4)c(Cl)c3c2)n1C (single isomer, unassigned) [Example 21b, {2-Azetidin-1-yl-4-chloro-3-[4-(1H-pyrazol-1-yl)benzyl]quinolin-6-yl}(1,2-dimethyl-1H-imidazol-5-yl)methanol]
Kd [1]: 260 nM | inhibition at 6 µM (human RORγt LBD; 6 µM compound): 88% | IC50 (human RORγt LBD): 690 nM

Cc1noc(C)c1C(O)c1ccc2nc(Cl)c(-c3ccccc3)c(Cl)c2c1 (centres unmarked) [Example 1, (2,4-Dichloro-3-phenylquinolin-6-yl)(3,5-dimethylisoxazol-4-yl)methanol]
Kd [1]: 550 nM | inhibition at 6 µM (human RORγt LBD; 6 µM compound): 48% | IC50 (human RORγt LBD): > 6000 nM

Cn1cncc1C(O)c1ccc2nc(Cl)c(-c3ccccc3)c(Cl)c2c1 (centres unmarked) [Example 2, (2,4-Dichloro-3-phenylquinolin-6-yl)(1-methyl-1H-imidazol-5-yl)methanol]
Kd [1]: 1600 nM | inhibition at 6 µM (human RORγt LBD; 6 µM compound): 12% | IC50 (human RORγt LBD): > 6000 nM

Cn1cncc1C(O)c1ccc2nc(Cl)c(-c3ccccc3Cl)c(Cl)c2c1 (centres unmarked) [Example 3, (2,4-Dichloro-3-(2-chlorophenyl)quinolin-6-yl)(1-methyl-1H-imidazol-5-yl) methanol]
Kd [1]: 450 nM

Cc1cc(C(O)c2cncn2C)cc2c(Cl)c(-c3ccccc3)c(Cl)nc12 (centres unmarked) [Example 4, (2,4-Dichloro-8-methyl-3-phenylquinolin-6-yl)(1-methyl-1H-imidazol-5-yl)methanol•TFA]
Kd [1]: 4900 nM | inhibition at 6 µM (human RORγt LBD; 6 µM compound): -1% | IC50 (human RORγt LBD): > 6000 nM

COc1nc2ccc(C(O)C3CCN(C(C)=O)CC3)cc2c(Cl)c1Cc1ccc(C(F)(F)F)cc1 (centres unmarked) [Example 6, (1-Acetylpiperidin4-yl){4-chloro-2-methoxy-3-[4-(trifluoromethyl)benzyl]quinolin-6-yl}methanol]
Kd [1]: 220 nM | inhibition at 6 µM (human RORγt LBD; 6 µM compound): 95% | IC50 (human RORγt LBD): 790 nM

Cn1cncc1C(O)c1ccc2nc(Cl)c(Cc3ccc(-n4cccn4)cc3)c(Cl)c2c1 (centres unmarked) [Example 7, (3-(4-(1H-Pyrazol-1-y1)benzyl)-2,4-dichloroquinolin-6-yl)(1-methyl-1H-imidazol-5-yl)methanol]
Kd [1]: 480 nM | inhibition at 6 µM (human RORγt LBD; 6 µM compound): 93% | IC50 (human RORγt LBD): ~2000 nM

COc1nc2ccc(C(O)c3cnc(C)n3C)cc2c(Cl)c1Cc1ccc(F)cc1 (centres unmarked) [Example 8a]
Kd [1]: 180 nM | inhibition at 6 µM (human RORγt LBD; 6 µM compound): 40%

COc1nc2c(C)cc(C(O)c3cncn3C)cc2c(Cl)c1Cc1ccc(S(C)(=O)=O)cc1 (centres unmarked) [Example 10]
Kd [1]: 3000 nM | inhibition at 6 µM (human RORγt LBD; 6 µM compound): 59% | IC50 (human RORγt LBD): ~6000 nM

COc1nc2c(C)cc(C(O)c3cncn3C)cc2c(Cl)c1Cc1cccc(C(F)(F)F)c1 (centres unmarked) [Example 11, (4-Chloro-2-methoxy-8-methyl-3-(3-(trifluoromethyl)benzyl)quinolin-6-yl)(1-methyl-1H-imidazol-5-yl)methanol]
Kd [1]: 150 nM | inhibition at 6 µM (human RORγt LBD; 6 µM compound): 24% | IC50 (human RORγt LBD): > 6000 nM

COc1nc2c(C)cc(C(O)c3cncn3C)cc2c(Cl)c1Cc1ccc(-n2cccn2)cc1 (centres unmarked) [Example 12, (3-(4-(1H-Pyrazol-1-yl)benzyl)-4-chloro-2-methoxy-8-methylquinolin-6-yl)(1-methyl-1H-imidazol-5-yl)methanole•TFA]
Kd [1]: 600 nM | inhibition at 6 µM (human RORγt LBD; 6 µM compound): 92% | IC50 (human RORγt LBD): ~1000 nM

Cc1ncc(C(O)c2ccc3nc(Cl)c(-c4ccccc4)c(Cl)c3c2)n1C (centres unmarked) [Example 13, (2,4-Dichloro-3-phenylquinolin-6-yl)(1,2-dimethyl-1H-imidazol-5-yl)methanol]
Kd [1]: 1200 nM | inhibition at 6 µM (human RORγt LBD; 6 µM compound): 43% | IC50 (human RORγt LBD): > 6000 nM

COc1nc2ccc(C(O)c3ccc(C)nc3C)cc2c(Cl)c1Cc1ccc(C(F)(F)F)cc1 (centres unmarked) [Example 14a, (4-Chloro-2-methoxy-3-(4-(trifluoromethyl)benzyl)quinolin-6-yl)(2,6-dimethylpyridin-3-yl)methanol]
Kd [1]: 71 nM

COc1nc2ccc(C(O)c3cnc(C)n3C)cc2c(Cl)c1Cc1ccc(C(F)(F)F)cc1 (centres unmarked) [Example 15a, (4-Chloro-2-methoxy-3-(4-(trifluoromethyl)benzyl)quinolin-6-yl)(1,2-dimethyl-1H-imidazol-5-yl)methanol]
Kd [1]: 74 nM | inhibition at 6 µM (human RORγt LBD; 6 µM compound): 101% | IC50 (human RORγt LBD): 43 nM

COc1nc2ccc(C(O)c3ccc(C)nc3C)cc2cc1Cc1ccc(C(F)(F)F)cc1 (centres unmarked) [Example 16, (2,6-Dimethylpyridin-3-yl)(2-methoxy-3-(4-(trifluoromethyl)benzyl)quinolin-6-yl)methanol]
Kd [1]: 4800 nM | inhibition at 6 µM (human RORγt LBD; 6 µM compound): 88% | IC50 (human RORγt LBD): 1900 nM

COc1nc2ccc(C(O)c3cnnn3C)cc2c(Cl)c1Cc1ccc(C(F)(F)F)cc1 (centres unmarked) [Example 17a, (4-Chloro-2-methoxy-3-(4-(trifluoromethyl)benzyl)quinolin-6-yl)(1-methyl-1H-1,2,3-triazol-5-yl)methanol]
Kd [1]: 64 nM | inhibition at 6 µM (human RORγt LBD; 6 µM compound): 99% | IC50 (human RORγt LBD): 310 nM

COc1nc2ccc(C(O)c3cncn3C)cc2c(Cl)c1Cc1ccc(C(F)(F)F)cc1 (centres unmarked) [Example 18a, (4-Chloro-2-methoxy-3-(4-(trifluoromethyl)benzyl)quinolin-6-yl)(1-methyl-1H-imidazol-5-yl)methanol]
Kd [1]: 240 nM | inhibition at 6 µM (human RORγt LBD; 6 µM compound): 96% | IC50 (human RORγt LBD): 380 nM

COc1nc2ccc(C(O)c3oc(C)nc3C)cc2c(Cl)c1Cc1ccc(C(F)(F)F)cc1 (centres unmarked) [Example 19, (4-Chloro-2-methoxy-3-(4-(trifluoromethyl)benzyl)quinolin-6-yl)(2,4-dimethyloxazol-5-yl)methanol]
Kd [1]: 350 nM | inhibition at 6 µM (human RORγt LBD; 6 µM compound): 79% | IC50 (human RORγt LBD): 240 nM

Cc1ncc(C(O)c2ccc3nc(N4CCC4)c(Cc4ccc(-n5cccn5)cc4)c(Cl)c3c2)n1C (centres unmarked) [Example 21a, {2-Azetidin-1-yl-4-chloro-3-[4-(1H-pyrazol-1-yl)benzyl]quinolin-6-yl)(1,2-dimethyl-1H-imidazol-5-yl)methanol]
Kd [1]: 200 nM | inhibition at 6 µM (human RORγt LBD; 6 µM compound): 91% | IC50 (human RORγt LBD): 380 nM

Source: patent EP3057949B1, “SECONDARY ALCOHOL QUINOLINYL MODULATORS OF ROR GAMMA T” (Janssen Pharmaceutica NV, priority 2013, dated 2015)
